Test results: patent publication US12498382B2, “Biomarkers for vitiligo” (INCYTE CORPORATION, priority 2019, dated 2025)

Test system: HaCaT cells
Experiment: Normalized expression of target genes in HaCaT cells stimulated with TNFα and IFNγ in presence/absence of JAK inhibitors (QuantiGene Plex)
Format: cell-based, human
Conditions: for MFI, normalized expression of IYK2: gene IYK2; for MFI, normalized expression of IYK2 / MFI, normalized expression of TNF / MFI, normalized expression of VEGFA: HaCaT, normalized to HPRT1, mean ± standard error; for MFI, normalized expression of TNF: gene TNF; for MFI, normalized expression of VEGFA: gene VEGFA
Experimental: Transformed human keratinocyte (HaCaT) cells were purchased from AddexBio (Catalog #T0020001) and cultured as outlined in Example 5. […] After 48 hours, cell culture media was removed from 24 well plates and replaced with 250 uL of media containing serial diluted drug, then incubated for 15 minutes at 37° C./5% CO2. After drug incubation, 250 uL of combinatory stimulation containing Recombinant Human Interferon gamma (R&D Systems, Catalog #285-IF-100) and Recombinant Human Tumor Necrosis Factor alpha (R&D Systems, Catalog #210-TA-020) was added to plates. The final concentration of Recombinant Human Interferon gamma and Recombinant Human Tumor Necrosis Factor alpha was 25 ng/mL of each cytokine. Cytokine stimulation added to wells containing drug brought the final concentrations for each drug treatment to 25 nM, 50 nM, 100 nM, and 200 nM. Treated plates were mixed by gentle agitation for 30 seconds then incubated for 24 hours at 37° C./5% CO2. At the end of the 24 hour incubation media was immediately removed from each plate.
RNA was isolated from HaCaT cells using the QuantiGene Plex Assay reagents and protocols (Affymetrix, Catalog #QGP-232-M18042302) according to the manufacturer's guidelines. Cells were washed with 1×DPBS then lysed by incubation with provided QuantiGene lysis buffer for 30 minutes at 50-55° C. Cell lysates were incubated for 18-24 hours at 55° C. with capture beads and probe set designed to specifically hybridize to mRNA from targets of interest. Genes included housekeeping genes (e.g., HPRT1 and GAPDH) used for the normalization of the results. After the 18-24 hour incubation signal was amplified utilizing branched DNA methodologies, according to the manufacturer's procedures (Affymetrix, Catalog #QGP-232-M18042302). After hybridization and wash steps assay plate was read on the Luminex 200 and data were expressed as Net Median Fluorescence Intensity. Data was then normalized to the Net Median Fluorescence Intensity of the housekeeping gene HPRT1 (Table 14).

[1] = TNFα+IFNγ 25 ng/mL, Drug Conc 25 nM
[2] = TNFα+IFNγ 25 ng/mL, Drug Conc 50 nM
[3] = TNFα+IFNγ 25 ng/mL, Drug Conc 100 nM
[4] = TNFα+IFNγ 25 ng/mL, Drug Conc 200 nM
[5] = TNFα (25 ng/mL) and IFNγ (25 ng/mL), 1st (lowest, likely 25 nM) of 4 drug conc
[6] = TNFα (25 ng/mL) and IFNγ (25 ng/mL), 2nd (likely 50 nM) of 4 drug conc
[7] = TNFα (25 ng/mL) and IFNγ (25 ng/mL), 3rd (likely 100 nM) of 4 drug conc
[8] = TNFα (25 ng/mL) and IFNγ (25 ng/mL), 4th (highest, likely 200 nM) of 4 drug conc
[9] = drug without TNFα/IFNγ stimulation
[10] = no stimulation, Drug Conc 200 nM

SMILES: Cc1n[nH]c(C)c1-c1cnn(C2(CC#N)CN(c3cc(F)c(C(=O)N[C@@H](C)C(F)(F)F)cc3F)C2)c1 [Cpd C, 4-[3-(Cyanomethyl)-3-(3′,5′-dimethyl-1H,1′H-4,4′-bipyrazol-1-yl)azetidin-1-yl]-2,5-difluoro-N-[(1S)-2,2,2-trifluoro-1-methylethyl]benzamide]
- AREG normalized expression MFI [1]: 703.71 ± 20.69
- CCL17 normalized expression MFI [1]: 2.63 ± 0.4
- CCL18 normalized expression MFI [1]: 2.11 ± 0.28
- FLG normalized expression MFI [1]: 62.5 ± 8.63
- IL6 normalized expression MFI [1]: 135.32 ± 3.36
- IL8 normalized expression MFI [1]: 387.86 ± 17.53
- IL17A normalized expression MFI [1]: 0.87 ± 0.14
- IL22 normalized expression MFI [1]: 1.23 ± 0.21
- IL23A normalized expression MFI [1]: 42.15 ± 1.61
- IL31 normalized expression MFI [1]: 1.52 ± 0.37
- ILIA normalized expression MFI [1]: 1370.52 ± 35.28
- JAK1 normalized expression MFI [1]: 206.29 ± 6.84
- JAK2 normalized expression MFI [1]: 114.94 ± 2.16
- JAK3 normalized expression MFI [1]: 1.02 ± 0.19
- LOR normalized expression MFI [1]: 23.22 ± 10.14
- S100A7 normalized expression MFI [1]: 5.33 ± 1.21
- S100A12 normalized expression MFI [1]: 1.31 ± 0.16
- SERPINB3 normalized expression MFI [1]: 2.58 ± 0.41
- SERPINB4 normalized expression MFI [1]: 3.53 ± 0.5
- STAT1 normalized expression MFI [1]: 3103.89 ± 185.88
- STAT3 normalized expression MFI [1]: 1557.84 ± 58.15
- STAT4 normalized expression MFI [1]: 5.65 ± 0.44
- STAT5A normalized expression MFI [1]: 22.82 ± 1.77
- STAT5B normalized expression MFI [1]: 40.13 ± 1.97
- STAT6 normalized expression MFI [1]: 1020.89 ± 23.57
- AREG normalized expression MFI [2]: 719.73 ± 30.82
- CCL17 normalized expression MFI [2]: 2.94 ± 0.35
- CCL18 normalized expression MFI [2]: 2.13 ± 0.46
- FLG normalized expression MFI [2]: 59.01 ± 8.69
- IL6 normalized expression MFI [2]: 128.14 ± 6.83
- IL8 normalized expression MFI [2]: 369.89 ± 17.71
- IL17A normalized expression MFI [2]: 1.07 ± 0.16
- IL22 normalized expression MFI [2]: 1.4 ± 0.19
- IL23A normalized expression MFI [2]: 45.16 ± 2.92
- IL31 normalized expression MFI [2]: 1.59 ± 0.33
- ILIA normalized expression MFI [2]: 1308.7 ± 45.12
- JAK1 normalized expression MFI [2]: 194.2 ± 8.24
- JAK2 normalized expression MFI [2]: 107.16 ± 2.86
- JAK3 normalized expression MFI [2]: 0.99 ± 0.16
- LOR normalized expression MFI [2]: 32.81 ± 17.47
- S100A7 normalized expression MFI [2]: 3.62 ± 0.78
- S100A12 normalized expression MFI [2]: 1.18 ± 0.18
- SERPINB3 normalized expression MFI [2]: 2.6 ± 0.69
- SERPINB4 normalized expression MFI [2]: 4.24 ± 1.6
- STAT1 normalized expression MFI [2]: 3049.62 ± 159.5
- STAT3 normalized expression MFI [2]: 1519.61 ± 69.92
- STAT4 normalized expression MFI [2]: 5.41 ± 0.33
- STAT5A normalized expression MFI [2]: 20.71 ± 1.77
- STAT5B normalized expression MFI [2]: 38.42 ± 2.28
- STAT6 normalized expression MFI [2]: 982.62 ± 14.34
- AREG normalized expression MFI [3]: 669.44 ± 30.13
- CCL17 normalized expression MFI [3]: 3.06 ± 0.47
- CCL18 normalized expression MFI [3]: 2.55 ± 0.87
- FLG normalized expression MFI [3]: 65.04 ± 9.31
- IL6 normalized expression MFI [3]: 112.13 ± 3.37
- IL8 normalized expression MFI [3]: 361.05 ± 16.02
- IL17A normalized expression MFI [3]: 0.89 ± 0.16
- IL22 normalized expression MFI [3]: 1.19 ± 0.2
- IL23A normalized expression MFI [3]: 48.11 ± 1.85
- IL31 normalized expression MFI [3]: 1.49 ± 0.35
- ILIA normalized expression MFI [3]: 1194.29 ± 12.27
- JAK1 normalized expression MFI [3]: 193.28 ± 4.55
- JAK2 normalized expression MFI [3]: 95.51 ± 3.13
- JAK3 normalized expression MFI [3]: 0.99 ± 0.15
- LOR normalized expression MFI [3]: 65.94 ± 37.89
- S100A7 normalized expression MFI [3]: 4.3 ± 1.17
- S100A12 normalized expression MFI [3]: 1.48 ± 0.32
- SERPINB3 normalized expression MFI [3]: 3.63 ± 1.32
- SERPINB4 normalized expression MFI [3]: 7.56 ± 3.67
- STAT1 normalized expression MFI [3]: 3028.93 ± 125.19
- STAT3 normalized expression MFI [3]: 1457.24 ± 54.48
- STAT4 normalized expression MFI [3]: 5.32 ± 0.46
- STAT5A normalized expression MFI [3]: 18.44 ± 1.85
- STAT5B normalized expression MFI [3]: 36.56 ± 1.18
- STAT6 normalized expression MFI [3]: 943.66 ± 25.99
- AREG normalized expression MFI [4]: 681.68 ± 16.1
- CCL17 normalized expression MFI [4]: 2.59 ± 0.34
- CCL18 normalized expression MFI [4]: 1.74 ± 0.62
- FLG normalized expression MFI [4]: 68.26 ± 8.04
- IL6 normalized expression MFI [4]: 101.17 ± 2.91
- IL8 normalized expression MFI [4]: 350.6 ± 11.85
- IL17A normalized expression MFI [4]: 0.87 ± 0.13
- IL22 normalized expression MFI [4]: 1.14 ± 0.25
- IL23A normalized expression MFI [4]: 51.86 ± 2.95
- IL31 normalized expression MFI [4]: 1.32 ± 0.34
- ILIA normalized expression MFI [4]: 1151.31 ± 20.01
- JAK1 normalized expression MFI [4]: 182.86 ± 4.07
- JAK2 normalized expression MFI [4]: 91.17 ± 2.15
- JAK3 normalized expression MFI [4]: 0.85 ± 0.15
- LOR normalized expression MFI [4]: 37.49 ± 25.57
- S100A7 normalized expression MFI [4]: 3.95 ± 1.14
- S100A12 normalized expression MFI [4]: 1.06 ± 0.2
- SERPINB3 normalized expression MFI [4]: 2.14 ± 0.67
- SERPINB4 normalized expression MFI [4]: 3.54 ± 1.5
- STAT1 normalized expression MFI [4]: 2977.26 ± 166.85
- STAT3 normalized expression MFI [4]: 1483.1 ± 51.73
- STAT4 normalized expression MFI [4]: 5.04 ± 0.36
- STAT5A normalized expression MFI [4]: 17.64 ± 1.46
- STAT5B normalized expression MFI [4]: 36.34 ± 1.97
- STAT6 normalized expression MFI [4]: 966.51 ± 12.3
- MFI, normalized expression of IYK2 [5]: 283.97 ± 8.59
- MFI, normalized expression of IYK2 [6]: 273.68 ± 7.44
- MFI, normalized expression of IYK2 [7]: 266 ± 6.82
- MFI, normalized expression of IYK2 [8]: 263.49 ± 5.05
- MFI, normalized expression of IYK2 [9]: 205.57 ± 10.87
- MFI, normalized expression of TNF [5]: 24.07 ± 1.43
- MFI, normalized expression of TNF [6]: 26.51 ± 1.84
- MFI, normalized expression of TNF [7]: 25.93 ± 1.59
- MFI, normalized expression of TNF [8]: 24.73 ± 1.29
- MFI, normalized expression of TNF [9]: 2.19 ± 0.56
- MFI, normalized expression of VEGFA [5]: 570.27 ± 10.88
- MFI, normalized expression of VEGFA [6]: 531.53 ± 11.24
- MFI, normalized expression of VEGFA [7]: 514.04 ± 7.46
- MFI, normalized expression of VEGFA [8]: 492.12 ± 8.32
- MFI, normalized expression of VEGFA [9]: 199.88 ± 6.52
- AREG normalized expression MFI [10]: 242.5 ± 16.14
- CCL17 normalized expression MFI [10]: 0.99 ± 0.28
- CCL18 normalized expression MFI [10]: 1.56 ± 0.73
- FLG normalized expression MFI [10]: 211.48 ± 29.55
- IL6 normalized expression MFI [10]: 4.97 ± 0.36
- IL8 normalized expression MFI [10]: 55.48 ± 3.11
- IL17A normalized expression MFI [10]: 0.51 ± 0.1
- IL22 normalized expression MFI [10]: 0.71 ± 0.11
- IL23A normalized expression MFI [10]: 9.42 ± 0.97
- IL31 normalized expression MFI [10]: 0.79 ± 0.2
- ILIA normalized expression MFI [10]: 88.72 ± 5.9
- JAK1 normalized expression MFI [10]: 159.13 ± 7.08
- JAK2 normalized expression MFI [10]: 23.67 ± 0.92
- JAK3 normalized expression MFI [10]: 0.63 ± 0.1
- LOR normalized expression MFI [10]: 19.48 ± 9.66
- S100A7 normalized expression MFI [10]: 4.38 ± 1.15
- S100A12 normalized expression MFI [10]: 0.72 ± 0.18
- SERPINB3 normalized expression MFI [10]: 2.31 ± 0.77
- SERPINB4 normalized expression MFI [10]: 3.37 ± 1.57
- STAT1 normalized expression MFI [10]: 522.12 ± 14.19
- STAT3 normalized expression MFI [10]: 728.97 ± 20.48
- STAT4 normalized expression MFI [10]: 4.01 ± 0.45
- STAT5A normalized expression MFI [10]: 1.44 ± 0.41
- STAT5B normalized expression MFI [10]: 50.91 ± 4.38
- STAT6 normalized expression MFI [10]: 723.56 ± 20.76
